The record followed here is US20260022142A1, “MACROCYCLIC IMMUNOMODULATORS” (Bristol-Myers Squibb Company, priority 2022, published 2026).

Bridge positions count the residues as written; N and C are the ends. Square brackets hold non-standard residues; d marks the D form. Peptide text beside a SMILES is read from it. * marks the point of attachment. ξ: configuration not given here. Phe(4-CF3) = N[C@@H](Cc1ccc(C(F)(F)F)cc1)C(=O)O; Phe(4-COOH) = N[C@@H](Cc1ccc(C(=O)O)cc1)C(=O)O; Bip = N[C@@H](Cc1ccc(-c2ccccc2)cc1)C(=O)O; NH(CH2)14COOH = O=C(O)CCCCCCCCCCCCCCN*; Phe(3-Me) = Cc1cccc(C[C@H](N)C(=O)O)c1; NH(CH2)12COOH = O=C(O)CCCCCCCCCCCCN*; Val(3-OH) = CC(C)(O)[C@H](N)C(=O)O; Cha = N[C@@H](CC1CCCCC1)C(=O)O; Thr(3ξ) = CC(O)[C@H](N)C(=O)O; Carboxymethyl = O=C(O)C*; Nle = CCCC[C@H](N)C(=O)O; Orn = NCCC[C@H](N)C(=O)O; Aun = NCCCCCCCCCCC(=O)O; Dab = NCC[C@H](N)C(=O)O; Nva = CCC[C@H](N)C(=O)O; Abu = CC[C@H](N)C(=O)O; AEEA = NCCOCCOCC(=O)O

The target of this experiment is T1, PD-1/PD-L1 interaction (PE-labeled human PD-L1-Ig binding to Jurkat cell line over-expressing human PD-1) (Homo sapiens, UniProt Q15116).
T1 construct: expressed in transfected cells; host or cells: Jurkat
T1 sequence (Q15116 25-288): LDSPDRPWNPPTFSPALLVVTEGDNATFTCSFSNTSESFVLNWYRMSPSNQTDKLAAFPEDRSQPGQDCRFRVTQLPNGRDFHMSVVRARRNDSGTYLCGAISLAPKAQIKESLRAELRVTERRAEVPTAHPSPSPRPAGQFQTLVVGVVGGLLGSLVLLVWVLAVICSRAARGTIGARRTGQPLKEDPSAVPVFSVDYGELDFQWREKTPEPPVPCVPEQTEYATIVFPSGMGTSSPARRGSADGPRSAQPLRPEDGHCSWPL
The experiment in a line: Jurkat-PD-1 Cell Binding High-Content Screening Assay (CBA). Format: cell-based. Particulars: Jurkat cell line over-expressing human PD-1; PE-labeled PD-L1-Ig 20 nM final; read-out: Jurkat hPD1-PDL1 IC50. The method, boiled down:
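Human PD-L1-Ig carrying a covalent PE label on its Ig tag serves as the probe, applied at 20 nM final to compound-treated (2 h, 37° C) Jurkat-hPD-1 cells in medium with 10% fetal calf serum. After one hour, fixation and nuclear staining precede high-content image analysis.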
On to `Cc1cccc(C[C@@H]2NC(=O)[C@H](CC(=O)O)NC(=O)[C@H](Cc3ccc(OCC(=O)O)cc3)NC(=O)[C@H](CCN)NC(=O)CSC[C@@H](C(=O)N[C@@H](CCN)C(=O)NCCOCCOCC(=O)NCCCCCCCCCCC(=O)O)NC(=O)[C@H](Cc3cnc[nH]3)NC(=O)[C@H](C(C)O)NC(=O)[C@H](CC3CCCCC3)NC(=O)[C@H](CCN)NC(=O)[C@@H](CC(C)C)NC(=O)[C@H](CCCN)NC(=O)[C@H](Cc3ccc(OCC(=O)O)cc3)NC(=O)[C@H](Cc3ccc(-c4ccccc4)cc3)NC(=O)[C@H](Cc3ccc(OCC(=O)O)cc3)NC2=O)c1` (stereo partly drawn) [Compound 3805] ({CH2CO}-[Dab]Y(Carboxymethyl)D[Phe(3-Me)]Y(Carboxymethyl)[Bip]Y(Carboxymethyl)[Orn][dL][Dab][Cha][Thr(3ξ)]HC[Dab][AEEA][Aun]-OH; thioether N-14), for which the IC50 worked out at 1.2 nM.
The figure for `Cc1cccc(C[C@@H]2NC(=O)[C@H](CC(=O)O)NC(=O)[C@H](Cc3ccc(OCC(=O)O)cc3)NC(=O)[C@H](C(C)O)NC(=O)CSC[C@@H](C(=O)N[C@@H](CCN)C(=O)NCCOCCOCC(=O)NCCCCCCCCCCC(=O)O)NC(=O)[C@H](CCC(=O)O)NC(=O)[C@H](C(C)C)NC(=O)[C@H](CC3CCCCC3)NC(=O)[C@H](CCN)NC(=O)[C@@H](CC(C)C)NC(=O)[C@H](CCCN)NC(=O)[C@H](Cc3ccc(OCC(=O)O)cc3)NC(=O)[C@H](Cc3ccc(-c4ccccc4)cc3)NC(=O)[C@H](Cc3ccc(OCC(=O)O)cc3)NC2=O)c1` (stereo partly drawn) [Compound 3806] ({CH2CO}-[Thr(3ξ)]Y(Carboxymethyl)D[Phe(3-Me)]Y(Carboxymethyl)[Bip]Y(Carboxymethyl)[Orn][dL][Dab][Cha]VEC[Dab][AEEA][Aun]-OH; thioether N-14) is 5.2 nM.
On to `CCC[C@@H]1NC(=O)CSC[C@@H](C(=O)N[C@@H](CCN)C(=O)NCCOCCOCC(=O)NCCCCCCCCCCC(=O)O)NC(=O)[C@H](CCC(=O)O)NC(=O)[C@H](CO)NC(=O)[C@H](CC2CCCCC2)NC(=O)[C@H](CCN)NC(=O)[C@@H](CC(C)C)NC(=O)[C@H](CCCN)NC(=O)[C@H](Cc2ccc(OCC(=O)O)cc2)NC(=O)[C@H](Cc2ccc(-c3ccccc3)cc2)NC(=O)[C@H](Cc2ccc(OCC(=O)O)cc2)NC(=O)[C@H](Cc2cccc(C)c2)NC(=O)[C@H](CC(=O)O)NC(=O)[C@H](Cc2ccc(OCC(=O)O)cc2)NC1=O` [Compound 3807] ({CH2CO}-[Nva]Y(Carboxymethyl)D[Phe(3-Me)]Y(Carboxymethyl)[Bip]Y(Carboxymethyl)[Orn][dL][Dab][Cha]SEC[Dab][AEEA][Aun]-OH; thioether N-14), for which the IC50 amounted to 20.4 nM.
With `CCCC[C@@H]1NC(=O)CSC[C@@H](C(=O)N[C@@H](CCN)C(=O)NCCOCCOCC(=O)NCCOCCOCC(=O)NCCCCCCCCCCCCC(=O)O)NC(=O)[C@H](CCC(=O)O)NC(=O)[C@H](C(C)C)NC(=O)[C@H](CC2CCCCC2)NC(=O)[C@H](CCN)NC(=O)[C@@H](CC(C)C)NC(=O)[C@H](CCCN)NC(=O)[C@H](Cc2ccc(C(=O)O)cc2)NC(=O)[C@H](Cc2ccc(-c3ccccc3)cc2)NC(=O)[C@H](Cc2ccc(C(=O)O)cc2)NC(=O)[C@H](Cc2cccc(C)c2)NC(=O)[C@H](CC(=O)O)NC(=O)[C@H](Cc2ccc(OCC(=O)O)cc2)NC1=O` [Compound 3809] ({CH2CO}-[Nle]Y(Carboxymethyl)D[Phe(3-Me)][Phe(4-COOH)][Bip][Phe(4-COOH)][Orn][dL][Dab][Cha]VEC[Dab][AEEA][AEEA]-{NH(CH2)12COOH}; thioether N-14) the figure was 15.4 nM.
Take `Cc1cccc(C[C@@H]2NC(=O)[C@H](CC(=O)O)NC(=O)[C@H](Cc3ccc(OCC(=O)O)cc3)NC(=O)[C@H](C(C)O)NC(=O)CSC[C@@H](C(=O)N[C@@H](CCN)C(=O)NCCCCCCCCCCCCC(=O)O)NC(=O)[C@H](CO)NC(=O)[C@H](C(C)(C)O)NC(=O)[C@H](CC3CCCCC3)NC(=O)[C@H](CCN)NC(=O)[C@@H](CC(C)C)NC(=O)[C@H](CCCN)NC(=O)[C@H](Cc3ccc(OCC(=O)O)cc3)NC(=O)[C@H](Cc3ccc(-c4ccccc4)cc3)NC(=O)[C@H](Cc3ccc(C(F)(F)F)cc3)NC2=O)c1` (stereo partly drawn) [Compound 3810] ({CH2CO}-[Thr(3ξ)]Y(Carboxymethyl)D[Phe(3-Me)][Phe(4-CF3)][Bip]Y(Carboxymethyl)[Orn][dL][Dab][Cha][Val(3-OH)]SC[Dab]-{NH(CH2)12COOH}; thioether N-14): the IC50 turned out to be 19.8 nM.
With `CC[C@@H]1NC(=O)CSC[C@@H](C(=O)N[C@@H](CCN)C(=O)NCCOCCOCC(=O)N[C@@H](CCC(=O)O)C(=O)NCCCCCCCCCCCCC(=O)O)NC(=O)[C@H](CO)NC(=O)[C@H](C(C)(C)O)NC(=O)[C@H](CC2CCCCC2)NC(=O)[C@H](CCN)NC(=O)[C@@H](CC(C)C)NC(=O)[C@H](CCCN)NC(=O)[C@H](Cc2ccc(OCC(=O)O)cc2)NC(=O)[C@H](Cc2ccc(-c3ccccc3)cc2)NC(=O)[C@H](Cc2ccc(OCC(=O)O)cc2)NC(=O)[C@H](Cc2cccc(C)c2)NC(=O)[C@H](CC(=O)O)NC(=O)[C@H](Cc2ccc(OCC(=O)O)cc2)NC1=O` [Compound 3811] ({CH2CO}-[Abu]Y(Carboxymethyl)D[Phe(3-Me)]Y(Carboxymethyl)[Bip]Y(Carboxymethyl)[Orn][dL][Dab][Cha][Val(3-OH)]SC[Dab][AEEA]E-{NH(CH2)12COOH}; thioether N-14) the figure was 3.9 nM; with `CCCC[C@@H]1NC(=O)CSC[C@@H](C(=O)N[C@@H](CCN)C(=O)NCCOCCOCC(=O)NCCOCCOCC(=O)NCCCCCCCCCCCCC(=O)O)NC(=O)[C@H](CO)NC(=O)[C@H](C(C)(C)O)NC(=O)[C@H](CC2CCCCC2)NC(=O)[C@H](CCN)NC(=O)[C@@H](CC(C)C)NC(=O)[C@H](CCCN)NC(=O)[C@H](Cc2ccc(OCC(=O)O)cc2)NC(=O)[C@H](Cc2ccc(-c3ccccc3)cc2)NC(=O)[C@H](Cc2ccc(OCC(=O)O)cc2)NC(=O)[C@H](Cc2cccc(C)c2)NC(=O)[C@H](CC(=O)O)NC(=O)[C@H](Cc2ccc(OCC(=O)O)cc2)NC1=O` [Compound 3812] ({CH2CO}-[Nle]Y(Carboxymethyl)D[Phe(3-Me)]Y(Carboxymethyl)[Bip]Y(Carboxymethyl)[Orn][dL][Dab][Cha][Val(3-OH)]SC[Dab][AEEA][AEEA]-{NH(CH2)12COOH}; thioether N-14), 13.3 nM; with `Cc1cccc(C[C@@H]2NC(=O)[C@H](CC(=O)O)NC(=O)[C@H](Cc3ccc(OCC(=O)O)cc3)NC(=O)[C@H](CCN)NC(=O)CSC[C@@H](C(=O)N[C@@H](CCN)C(=O)NCCOCCOCC(=O)NCCOCCOCC(=O)NCCCCCCCCCCCCC(=O)O)NC(=O)[C@H](CO)NC(=O)[C@H](C(C)(C)O)NC(=O)[C@H](CC3CCCCC3)NC(=O)[C@H](CCN)NC(=O)[C@@H](CC(C)C)NC(=O)[C@H](CCCN)NC(=O)[C@H](Cc3ccc(OCC(=O)O)cc3)NC(=O)[C@H](Cc3ccc(-c4ccccc4)cc3)NC(=O)[C@H](Cc3ccc(OCC(=O)O)cc3)NC2=O)c1` [Compound 3813] ({CH2CO}-[Dab]Y(Carboxymethyl)D[Phe(3-Me)]Y(Carboxymethyl)[Bip]Y(Carboxymethyl)[Orn][dL][Dab][Cha][Val(3-OH)]SC[Dab][AEEA][AEEA]-{NH(CH2)12COOH}; thioether N-14), 6.9 nM.
Regarding `Cc1cccc(C[C@@H]2NC(=O)[C@H](CC(=O)O)NC(=O)[C@H](Cc3ccc(OCC(=O)O)cc3)NC(=O)[C@H](CCN)NC(=O)CSC[C@@H](C(=O)N[C@@H](CCN)C(=O)NCCOCCOCC(=O)N[C@@H](CCC(=O)O)C(=O)NCCCCCCCCCCCCCCC(=O)O)NC(=O)[C@H](CO)NC(=O)[C@H](C(C)(C)O)NC(=O)[C@H](CC3CCCCC3)NC(=O)[C@H](CCN)NC(=O)[C@@H](CC(C)C)NC(=O)[C@H](CCCN)NC(=O)[C@H](Cc3ccc(OCC(=O)O)cc3)NC(=O)[C@H](Cc3ccc(-c4ccccc4)cc3)NC(=O)[C@H](Cc3ccc(OCC(=O)O)cc3)NC2=O)c1` [Compound 3814] ({CH2CO}-[Dab]Y(Carboxymethyl)D[Phe(3-Me)]Y(Carboxymethyl)[Bip]Y(Carboxymethyl)[Orn][dL][Dab][Cha][Val(3-OH)]SC[Dab][AEEA]E-{NH(CH2)14COOH}; thioether N-14), the IC50 was determined as 53.4 nM.
In the case of `Cc1cccc(C[C@@H]2NC(=O)[C@H](CC(=O)O)NC(=O)[C@H](Cc3ccc(OCC(=O)O)cc3)NC(=O)[C@H](CCN)NC(=O)CSC[C@@H](C(=O)N[C@@H](CCN)C(=O)NCCOCCOCC(=O)NCCOCCOCC(=O)NCCCCCCCCCCCCCCC(=O)O)NC(=O)[C@H](CO)NC(=O)[C@H](C(C)(C)O)NC(=O)[C@H](CC3CCCCC3)NC(=O)[C@H](CCN)NC(=O)[C@@H](CC(C)C)NC(=O)[C@H](CCCN)NC(=O)[C@H](Cc3ccc(OCC(=O)O)cc3)NC(=O)[C@H](Cc3ccc(-c4ccccc4)cc3)NC(=O)[C@H](Cc3ccc(OCC(=O)O)cc3)NC2=O)c1` [Compound 3815] ({CH2CO}-[Dab]Y(Carboxymethyl)D[Phe(3-Me)]Y(Carboxymethyl)[Bip]Y(Carboxymethyl)[Orn][dL][Dab][Cha][Val(3-OH)]SC[Dab][AEEA][AEEA]-{NH(CH2)14COOH}; thioether N-14), the IC50 worked out at 21.7 nM.
Regarding `COC[C@H](NC(=O)COCCOCCNC(=O)[C@H](CCN)NC(=O)[C@@H]1CSCC(=O)N[C@@H](CCN)C(=O)N[C@@H](Cc2ccc(OCC(=O)O)cc2)C(=O)N[C@@H](CC(=O)O)C(=O)N[C@@H](Cc2cccc(C)c2)C(=O)N[C@@H](Cc2ccc(OCC(=O)O)cc2)C(=O)N[C@@H](Cc2ccc(-c3ccccc3)cc2)C(=O)N[C@@H](Cc2ccc(OCC(=O)O)cc2)C(=O)N[C@@H](CCCN)C(=O)N[C@H](CC(C)C)C(=O)N[C@@H](CCN)C(=O)N[C@@H](CC2CCCCC2)C(=O)N[C@@H](C(C)(C)O)C(=O)N[C@@H](CO)C(=O)N1)C(=O)NCCCCCCCCCCCCC(=O)O` [Compound 3816] ({CH2CO}-[Dab]Y(Carboxymethyl)D[Phe(3-Me)]Y(Carboxymethyl)[Bip]Y(Carboxymethyl)[Orn][dL][Dab][Cha][Val(3-OH)]SC[Dab][AEEA]S(Me)-{NH(CH2)12COOH}; thioether N-14), the IC50 came out at 26 nM.
